Reference: US7977082B2, “Isomaltulose synthases, polynucleotides encoding them and uses therefor” (The University of Queensland of St. Lucia, priority 2001, dated 2011)

What was measured:
E. rhapontici WAC2928 = test: Growth in BP medium with different sugars; assay type: cell-based; details: 2% sugar added to BP medium, 18 h incubation at 30°C
Experimental: (§1) Isomaltulose production was tested using cells grown in LB and in a basal peptone medium (BP, comprising 1% BBL gelysate peptone and 0.5% NaCl, adjusted to pH 7.0 prior to autoclaving). Glucose, fructose, sucrose, lactose, maltose or isomaltulose was added to the cooled media, from a filter-sterilised stock. The media containing 4% (w/v) sucrose are referred to as SLB and SBP respectively.
(§2) Inoculum of 100 μL from a culture grown for 12 h in LB medium was added to 25 mL growth medium in a 250 mL flask. After 18 h at 30° C. on a shaker at 225 rpm, OD600 was used to measure growth. Cultures were diluted with growth medium to OD600=1.50 (approximately half the cell density of a saturated culture in SLB). Aliquots of 1 mL were harvested by centrifugation at 5000×g for 10 min and washed three times with 0.1 M citrate/phosphate buffer (pH 6.0). The cell pellets were resuspended in 0.4 mL of 0.1 M citrate/phosphate buffer (pH 6.0) containing 50% sucrose (w/v). Culture supernatant was filtered through a 0.2 μm filter (Pall Acrodisc), and 0.1 mL was mixed with 0.4 mL of 0.1 M citrate/phosphate buffer (pH 6.0) containing 50% sucrose (w/v), for parallel testing of culture filtrate and harvested cells in the SI assay.

P. dispersa 68J = test: Growth in BP medium with different sugars; assay type: cell-based; details: 2% sugar added to BP medium, 18 h incubation at 30°C
Experimental: as §1, §2

[1] = system: purified SI from Klebsiella sp. 14S; test: Inhibition of isomaltulose production by glucose and fructose; assay type: biochemical; details: 277 mM glucose or fructose
Experimental: (§3) SI activity was measured by incubating the purified enzyme with different sucrose concentrations (3, 6, 15, 58, 146, 292, 584, 877, 1169 and 1461 mM) under standard assay conditions, and also with addition of glucose, fructose or both to a final concentration of 277 mM. Data were analyzed according to the method of Lineweaver and Burk (Voet and Voet, 1995) to calculate Km and Vmax values.

[2] = system: purified SI from P. dispersa 68J; test: as above; assay type: biochemical; details: 277 mM glucose or fructose
Experimental: as §3

[3] = target: T1, Pantoea dispersa 68J sucrose isomerase (SI), mature, SEQ ID NO: 10, carboxy-terminal 6×His tag (SEQ ID NO: 52) (Pantoea dispersa, UniProt Q6XNK6); test: Sucrose isomerase kinetics, purified SI from P. dispersa 68J (isomaltulose production), with or without glucose/fructose; assay type: biochemical; details: glucose vs fructose, 0.277 M, various sucrose concentrations
T1 sequence (Q6XNK6 34-598): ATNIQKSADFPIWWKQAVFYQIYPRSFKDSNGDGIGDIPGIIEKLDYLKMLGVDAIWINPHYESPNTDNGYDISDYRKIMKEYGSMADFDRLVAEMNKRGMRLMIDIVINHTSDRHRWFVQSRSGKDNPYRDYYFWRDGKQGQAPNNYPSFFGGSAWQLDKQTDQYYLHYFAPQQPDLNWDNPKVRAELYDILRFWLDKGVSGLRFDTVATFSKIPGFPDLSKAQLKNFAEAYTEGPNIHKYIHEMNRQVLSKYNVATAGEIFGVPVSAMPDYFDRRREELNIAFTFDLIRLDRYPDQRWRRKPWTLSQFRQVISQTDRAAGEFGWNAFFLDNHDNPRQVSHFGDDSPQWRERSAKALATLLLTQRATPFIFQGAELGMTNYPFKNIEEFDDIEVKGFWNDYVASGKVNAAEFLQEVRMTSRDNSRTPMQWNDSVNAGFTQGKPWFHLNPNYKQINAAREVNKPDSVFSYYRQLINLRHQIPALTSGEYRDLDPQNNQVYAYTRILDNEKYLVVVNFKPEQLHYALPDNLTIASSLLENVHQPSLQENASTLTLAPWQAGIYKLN
Experimental: (§4) The pET24b vector introduces a carboxy-terminal 6×His tag (SEQ ID NO: 52) on expressed proteins, which were purified by adsorption to Ni-NTA agarose (Qiagen) and elution with 25 mM NaH2PO4, 150 mM NaCl, 125 mM imidazole buffer (pH8.0) following the manufacturer's instructions. For storage, the eluted solution was diluted with 50% glycerol. The purity of SI proteins was tested by SDS-PAGE as described below. A batch procedure using Ni-NTA agarose in suspension yielded predominantly (80-95%) SI with a background of several other protein bands. A procedure using Ni-NTA agarose in adsorption columns yielded preparations containing a single protein band. Unless otherwise specified, this is the form of the purified SI enzymes used for biochemical characterisation.
(§5) Enzyme activities were measured by incubating 5 μl of purified enzyme with 95 μL of sucrose solution at a final concentration of 584 mM in 0.1 M citrate/phosphate buffer (pH 6.0) at 30° C. Sugar profiles in the reaction mix were analysed at intervals by CE as described previously. One unit (U) of SI activity was defined as the amount of enzyme that could release 1 μmol of isomaltulose in one minute at the initial stage of the reaction.
as §3

[4] = target: T2, Klebsiella sp. 14S sucrose isomerase (SI), carboxy-terminal 6×His tag (SEQ ID NO: 52) (Klebsiella planticola, UniProt Q6XKX6); test: Sucrose isomerase kinetics, purified SI from Klebsiella sp. 14S (isomaltulose production), with or without glucose/fructose; assay type: biochemical; details: glucose vs fructose, 0.277 M, various sucrose concentrations
T2 sequence (Q6XKX6 29-598): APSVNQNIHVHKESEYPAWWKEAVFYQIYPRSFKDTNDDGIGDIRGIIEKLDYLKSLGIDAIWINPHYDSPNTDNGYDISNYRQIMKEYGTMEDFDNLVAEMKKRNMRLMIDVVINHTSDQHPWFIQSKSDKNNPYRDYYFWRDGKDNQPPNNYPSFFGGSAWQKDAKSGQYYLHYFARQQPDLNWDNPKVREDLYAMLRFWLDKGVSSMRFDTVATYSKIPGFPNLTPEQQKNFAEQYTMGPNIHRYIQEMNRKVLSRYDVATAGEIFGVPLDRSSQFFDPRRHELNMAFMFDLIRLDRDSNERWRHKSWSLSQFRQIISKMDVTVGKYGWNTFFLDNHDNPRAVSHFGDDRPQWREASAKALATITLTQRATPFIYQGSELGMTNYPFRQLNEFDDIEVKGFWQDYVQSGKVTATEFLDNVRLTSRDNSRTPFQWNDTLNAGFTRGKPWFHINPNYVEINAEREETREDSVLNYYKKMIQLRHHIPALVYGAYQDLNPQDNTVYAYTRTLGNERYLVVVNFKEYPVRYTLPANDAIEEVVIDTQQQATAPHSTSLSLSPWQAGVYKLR
Experimental: as §4, with “Unless otherwise specified, this is the form of the purified SI enzymes used for biochemical characterisation.” left out
Enzyme activities were measured by incubating 5 μl of purified enzyme with 95 μL of sucrose solution at a final concentration of 584 mM in 0.1 M citrate/phosphate buffer (pH 6.0) at 30° C. Sugar profiles in the reaction mix were analysed at intervals by CE as described previously. […]
as §3

[5] = system: E. rhapontici sucrose isomerase (SI); details: Nagai et al., 1994; Véronèse and Perlot, 1998; cited from earlier work
[6] = system: K. plymuthica sucrose isomerase (SI); details: Nagai et al., 1994; Véronèse and Perlot, 1998; cited from earlier work
[7] = system: P. rubrum sucrose isomerase (SI); details: Nagai et al., 1994; Véronèse and Perlot, 1998; cited from earlier work
[8] = system: P. mesoacidophila sucrose isomerase (SI); details: Nagai et al., 1994; Véronèse and Perlot, 1998; cited from earlier work
[9] = Conversion of sucrose to isomaltulose in transgenic sugarcane callus expressing SI genes; assay type: cell-based; details: cell extracts of transgenic sugarcane callus; 3 of 3 68J lines, 3 of 7 14S lines
From the text: The sucrose isomerase (SI) gene insert in the pET 24b vector was further cloned between the Ubi promoter from the maize ubi-l gene (Christensen and Quail, 1996, Transgen. Res. 5: 215-218) and the Agrobacterium nos terminator (Bevan et al., 1983, Nature 304: 183-187) to drive expression in sugarcane cells.
Plasmids with the sucrose isomerase genes (pU3ZErw, pU3Z14s or pU3Z68J) and the aph A construct plasmid pEmuKN (as a selectable marker) were isolated by alkaline extraction (Sambrook et al., 1989, supra), and dissolved in TE buffer. Plasmid intactness and absence of genomic DNA or RNA were checked by gel electrophoresis and concentration was measured by spectrophotometry. The sucrose isomerase (UbiSI) gene construct and selectable marker construct were co-precipitated onto tungsten microprojectiles and introduced into sugarcane callus, followed by selection for transformed callus, and regeneration of transgenic plants, essentially described by Bower et al. (1996, Molec. Breed. 2: 239-249).
Precipitation reactions were conducted by adding the following at 4° C. in turn to a 1.5 mL microfuge tube: 5 μL pEmuKN plasmid DNA (1 mg/mL), 5 μL UbiSI plasmid DNA (1 μg/μL), 50 μL tungsten (Bio-Rad M10, 100 μg/μL), 50 μL CaCl2 (2.5M), 20 μL spermidine (100 mM free base). […]

[10] = Assay of isolated (purified) SI enzyme activity; assay type: biochemical; details: purified fresh His-tagged enzymes
Experimental: as §4, §5
The enzymes were incubated with sucrose at different pH ranging from 2.0 to 10.6. The solution of pH 2.0 was buffered in 0.2 M KCl; pH 3.0 to pH 9.0 were in 0.1 M citrate/phosphate buffer; pH 10.0 to pH 10.6 were in 0.2 M glycine buffer. The effect of temperature from 10° C. to 70° C. was measured at pH 6.0. […]

[11] = Storage stability of purified SI proteins; assay type: physicochemical; details: elution buffer diluted with 50% glycerol
Experimental: The purified fresh enzymes from SDS-PAGE had specific activities for isomaltulose production of: E. rhapontici: 35 U mg^−1 protein, Klebsiella sp.: 95 U mg^−1 protein and P. dispersa: 632 U mg^−1 protein. The purified SI from E. rhapontici lost function during overnight storage at −20° C. in elution buffer diluted with 50% glycerol. In contrast, the purified enzymes from 14S or P. dispersa retained 100% of the fresh enzyme efficiency for isomaltulose production after 6-month storage at −20° C., or 60% after 15-day storage at room temperature in the same buffer. Because of instability, the E. rhapontici SI was not characterised further in purified form. Cheetham et al., (1984) found substantial differences between E. rhapontici strains for SI stability in immobilized cells, and the enzyme from strain NCPPB 1578 was stable in purified form (Cheetham, 1984).
as §4

OC[C@H]1O[C@H](OC[C@H]2OC(O)(CO)[C@@H](O)[C@@H]2O)[C@H](O)[C@@H](O)[C@@H]1O (stereo partly drawn) [isomaltulose, α-D-glucopyranosyl-1,6-D-fructofuranose]
effect on growth of E. rhapontici WAC2928 (E. rhapontici WAC2928): substantially enhanced growth
effect on growth of P. dispersa 68J (P. dispersa 68J): little effect

O=C(CO)[C@@H](O)[C@H](O)[C@H](O)CO [fructose]
effect on growth of P. dispersa 68J (P. dispersa 68J): supported faster growth
mode of inhibition of isomaltulose production [1]: competitive inhibitors
mode of inhibition of isomaltulose production [2]: competitive inhibitors

OC[C@H]1OC(O)[C@H](O)[C@@H](O)[C@@H]1O (some centres unmarked) [glucose]
Relative inhibition [3]: stronger inhibition than fructose
Relative inhibition [4]: stronger inhibition than fructose
Inhibition of activity [5]: inhibit activity
Inhibition of activity [6]: inhibit activity
Inhibition of activity [7]: inhibit activity
Inhibition of activity [8]: inhibit activity

B1: Erwinia rhapontici: sucrose isomerase cloned from Erwinia rhapontici WAC2928, SEQ ID NO: 2, mature polypeptide SEQ ID NO: 4 (protein, listed as Erwinia rhapontici)
chain: MSSQELKAAVAIFLATTFSATSYQACSAGPDTAPSLTVQQSNALPTWWKQAVFYQVYPRSFKDTNGDGIGDLNGIIENLDYLKKLGIDAIWINPHYDSPNTDNGYDIRDYRKIMKEYGTMEDFDRLISEMKKRNMRLMIDIVINHTSDQHAWFVQSKSGKNNPYRDYYFWRDGKDGHAPNNYPSFFGGSAWEKDDKSGQYYLHYFAKQQPDLNWDNPKVRQDLYDMLRFWLDKGVXGLRFDTVATYSKIPNFPDLSQQQLKNFAEEYTKGPKIHDYVNEMNREVLSHYDIATAGEIFGVPLDKSIKFFDRRRNELNIAFTFDLIRLDRDADERWRRKDWTLSQFRKIVDKVDQTAGEYGWNAFFLDNHDNPRAVSHFGDDRPQWREHAAKALATLTLTQRATPFIYQGSELGMTNYPFKKIDDFDDVEVKGFWQDYVETGKVKAEEFLTNVRQTSRDNSRTPFQWDASKNAGFTSGTPWLKINPNYKEINSADQINNPNSVFNYYRKLINIRHDIPALTYGSYIDLAPDNNSVYAYTRTFGAEKYLVVINFKEEVMHYTLPGDLSINKVITENNSHTIVNKNDVEDPRGATSVCSPFQAQKRPGDPGYSAAHSIRFLPRFFASYRGDIHAFK
modifications: not fully specified; sig_peptide (1)..(36); mat_peptide (37)..(632); MOD_RES (200)..(200) Any amino acid
isomaltulose peak relative to sucrose peak on the CE electrograph [9]: even lower isomaltulose levels than the 14S lines
specific activity for isomaltulose production [10]: 35 U mg^−1 protein
function after overnight storage at −20° C. [11]: lost function
